Results on five compounds are retold here after patent publication US9210928B2, “Plant development control composition” (Syngenta Crop Protection, LLC, priority 2008, dated 2015).

One data set has as its target T1, LeNCED1 (Solanum lycopersicum, UniProt O24023).
T1 construct: made in house; host or cells: E. coli Rosetta (DE3); crude cell-free extract
Put plainly: In vitro NCED enzyme assay (recombinant LeNCED1 cell-free extract, HPLC, 9′-cis-neoxanthin substrate). Format: biochemical, tomato. As to the method: In vitro NCED enzyme assay—We over-expressed LeNCED1 in E. coli, as an N-terminal His6-fusion protein (supplemental methods). Cell-free extract containing recombinant LeNCED1 was prepared in 100 mM bis-tris buffer (pH 6.7). 15 μl extract was pre-activated by addition of iron(II) sulphate (20 mM, 1 μl) and ascorbic acid (20 mM, 1 μl) on ice for 2 min, prior to use. This aliquot of enzyme was then added to an assay (150 μl total volume) containing 100 mM bis-tris buffer (pH 6.7), 0.05% v/v Triton X-100, 1.0 mg/ml catalase, and 3 μg 9′-cis-neoxanthin. The 9′-cis-neoxanthin substrate was prepared as described in supplemental methods. The enzyme assay was incubated for 15 min in the dark at 20° C. Water (700 μl) was then added, and the products extracted with ethyl acetate (3×1 ml). The organic solvent was removed at reduced pressure, the residue was dissolved in methanol (200 μl), and then 100 μl was injected onto a Phenomenex C18 reverse phase HPLC column, and a gradient of 5-10% methanol in acetonitrile/0.05% triethylamine was applied at 0.5 ml/min over 20 min, detecting at 440 nm. NCED inhibition assays contained 1-100 μM inhibitor; inhibition was calculated from the product formation after 15 min, compared to a control assay with no inhibitor present.
(§1) For the production of cell-free extracts of LeCCD1a and LeNCED1, cultures were grown to an OD of 0.6 at 37° C., then isopropyl β-D-1-thiogalactopyranoside (IPTG) was added to 0.2 mM and the cultures grown overnight at 20° C. The cells (200 ml cultures) were harvested by centrifugation (5000 rpm, 10 min) and the pellet re-suspended in 4 ml PBS, 0.1% Triton-X 100. Lysozyme was added to a final concentration of 25 μg ml^−1 and the solution incubated at room temperature for 15 min before sonication (3×30 s at 18Ω) on ice. The lysate was then centrifuged (13000 rpm, 15 min, 4° C.) and the supernatant used for the assay.
(§2) Specificity of inhibition in vitro for tomato genes LeNCED1 and LeCCD1a—In order to screen the inhibitors against enzymes which cleave carotenoids at the 9,10 position, we used the recombinant tomato LeCCD1a protein (44), because this type of enzyme can be studied using an in vitro colourimetric assay with β-apo-8′-carotenal as substrate (37). To establish the specificity of the inhibitors, they were also tested against the tomato LeNCED1 recombinant protein which cleaves 9-cis carotenoids at the 11,12 position (45). For this enzyme, the cleavage reaction was monitored by C18 reverse phase HPLC, using 9′-cis-neoxanthin as substrate.

Another data set addresses LeCCD1a (Solanum lycopersicum, UniProt Q6E4P5). Put plainly: In vitro LeCCD1a enzyme assay (recombinant cell-free extract, colourimetric, apo-8′-carotenal substrate). The data set is classed as biochemical, tomato (Solanum lycopersicum). The note with it: for IC50: E. coli cell extract with recombinant CCD, read-out: LeCCD1a (9,10/9′,10′) IC50; for inhibition at 100 µM: read-out: LeCCD1a (9,10/9′,10′) Inhibition @ 100 μM (%). As to the method:
In vitro LeCCD1a enzyme assay—We over-expressed LeCCD1a in E. coli, as a GST-fusion protein (supplemental methods). The in vitro assay of LeCCD1a was based on reported methods (37), and was carried out in a 200 μl total volume in a 96-well microtitre plate, with the signal detected at 485 nm. To prepare substrate solution for each assay, 5 μl of 4% (w/v in ethanol) apo-8′-carotenal (Sigma) was mixed with 25 μl of 4% (w/v in ethanol) β-octylglucoside (Sigma), the ethanol was then evaporated under nitrogen, and the residue dissolved in 150 μl PBS buffer containing 10 mM sodium ascorbate by incubation at 20° C. for 30 min. 50 μl of cell-free extract containing recombinant LeCCD1a was added, and the reactions monitored over 30 min at 20° C.
as §1, §2

The target of another data set is recombinant NCED. The note with it: read-out: Ki, reversible competitive inhibitor of recombinant NCED; cited from earlier work.
In data set [1] the test system is abscisic acid production in planta. Conditions: 50-100 μM concentration; cited from earlier work.
Data set [2] has as its system excised Arabidopsis nodes. Kind of data set: Axillary bud outgrowth assay in Arabidopsis stem sections. The data set is classed as in vivo. The note with it: 100 μM inhibitor, 1 μM NAA; Col-0. As to the method:
Axillary bud outgrowth assay in Arabidopsis stein sections—The assays were performed essentially as described (40) with the following modifications. Small Petri dishes (50 mm diameter, 20 mm depth) were filled with 10 ml of ATS (39) supplemented with 1% agar and 1% sucrose. Inhibitors and α-naphthalene acetic acid (NAA) were added to the agar before pouring to give 100 μM and 1 μM, respectively. Thus, when the central strip was cut out of the agar, both the apical and basal media contained both NAA and inhibitor. Any nodes in which the apical end had curled out of the media or which bud length was less than 2 mm at the end of the experiment were discounted. Measurement of the shoot length was performed every 24 hours. For each assay a logistic curve was fitted using Genstat (10th edition, VSN international) with the fitcurve directive and the lag phase was calculated by extrapolating the linear part of the curve and the initial plateau (see supplementary methods). The x value of where these two lines intersected represented the lag phase.
A logistic curve, y=A+C/(1+e^−B(t−m)), was fitted to the data for each shoot using GenStat (10th edition). The lag phase was then calculated using the equation m−(2/B) which effectively gave the t value (time) of the intercept of the two extrapolated lines from the linear part of the curve and the initial plateau.
Stimulation of shoot branching in Arabidopsis stem sections by application of inhibitor—Auxin inhibits the outgrowth of axillary buds in wild-type Arabidopsis plants. In the AtCCD7 and AtCCD8 null mutants (max3 and max4, respectively) the response to auxin is reduced, presumably due to a block in formation of an apocarotenoid hormone (recently shown (17,18) to be strigolactone or a related compound) that suppresses branching (19), and axillary buds extend earlier, leading to formation of side branches. An in vitro assay was previously developed in which the growth of axillary buds from isolated sections of Arabidopsis stem was used to assess max mutants (40). […]

For a further data set, the system named is whole Arabidopsis plants. Put plainly: Shoot branching in whole Arabidopsis plants grown in agar. The data set is classed as in vivo. Conditions: for unintended effects on whole Arabidopsis plants: applied to whole plants; for branching phenotype of whole plants (in words): plants grown under sterile conditions in agar. As to the method:
Branching phenotypes of Arabidopsis plants grown in agar media for 45 days supplemented with inhibitor D6. Images are shown: (a) Col-0 (WT) without inhibitor; (b) max3-9 mutant without inhibitor; (c) Col-0 with 100 μM D6. The numbers (d) of rosette branches were quantified. Error bars represent standard error of the mean, n=6 to 12.
Stimulation of shoot branching in whole Arabidopsis plants—Inhibitors were also applied to Arabidopsis whole plants grown under sterile conditions in agar. […] Inhibitor treated plants were intermediate (mean of approximately 2 branches) and so partially mimicked max3-9 (FIG. 6d).

Another data set concerns SP12 tomato seeds. Put plainly: Germination assay, SP12 tomato seed over-expressing LeNCED1. Format: in vivo, Solanum lycopersicum. The note with it: for stimulation of germination of SP12 seeds: compounds D1 to D7 tested, 1% DMSO. An excerpt:
(§3) Seeds used were “wild-type” tomato (Solanum lycopersicum cv. Ailsa craig near-isogenic line containing the Tm2^a tobacco mosaic virus resistance gene). In addition, we used transgenic tomato seed (Solanum lycopersicum cv. Ailsa craig) transformed with a construct designed to over-express the gene LeNCED1, encoding 9-cis-epoxycarotenoid dioxygenase. These transgenic seeds are known as D9 [Thompson, A. J., et al., Ectopic expression of a tomato 9-cis-epoxycarotenoid dioxygenase gene causes over-production of abscisic acid. Plant Journal, 2000. 23(3): p. […]], but were later renamed as SP12 [Thompson, A. J., et al., Regulation and manipulation of ABA biosynthesis in roots. Plant Cell and Environment, 2007. 30: p. […] Plant Journal, 2000. 23(3): p. 363-74.5].
Each assay consisted of a 10 cm vented Petri dish containing an 8.5 cm diameter circle of Whatman Grade 1 filter paper (Whatman International Ltd, Maidstone, England) soaked in 1 ml of test solution. Seeds were surface sterilized with 30% household bleach for 30 mins, rinsed in distilled water, and then 20 seeds were placed on the filter paper in each Petri dish. The Petri dishes were incubated at high relative humidity (>95%) at 25° C. in the dark. Seed germination, defined as visible emergence of the radicle, was scored daily. Replicate plates were used for each chemical treatment.
Hydroxamic acids were dissolved in dimethylsulphoxide (DMSO), and aqueous test solutions were prepared such that the final concentration of DMSO was 1% v/v. Control solution consisted of 1% v/v DMSO in water. Norflurazon was prepared as a stock solution at 20 mg ml^−1 in ethanol, and then diluted with water to a final concentration of 5 mg l^−1, with ethanol present at 0.025% v/v.
Transgenic SP12 tomato seeds we created by the inventors; these seeds have high levels of ABA and increased dormancy [Thompson, A. J., et al., Ectopic expression of a tomato 9-cis-epoxycarotenoid dioxygenase gene causes over-production of abscisic acid. Plant Journal, 2000. 23(3): p. 363-74 and Thompson, A. J., et al., Regulation and manipulation of ABA biosynthesis in roots. Plant Cell and Environment, 2007. 30: p. 67-78].

Data set [3] concerns wild-type tomato seeds (cv. Ailsa Craig). Kind of data set: Germination assay, wild-type tomato seed. The note with it: dose-dependent; FIG. 9. Format: in vivo, Solanum lycopersicum.
Excerpt: as §3
Each assay consisted of a 10 cm vented Petri dish containing an 8.5 cm diameter circle of Whatman Grade 1 filter paper (Whatman International Ltd, Maidstone, England) soaked in 1 ml of test solution. Seeds were surface sterilized with 30% household bleach for 30 mins, rinsed in distilled water, and then 20 seeds were placed on the filter paper in each Petri dish. The Petri dishes were incubated at high relative humidity (>95%) at 25° C. in the dark. Seed germination, defined as visible emergence of the radicle, was scored daily. Replicate plates were used for each chemical treatment. […]

Another data set deals with AtCCD1 (Arabidopsis thaliana, UniProt O65572). Conditions: 100 μM; cited from earlier work.
Sequence of AtCCD1 (O65572 whole entry): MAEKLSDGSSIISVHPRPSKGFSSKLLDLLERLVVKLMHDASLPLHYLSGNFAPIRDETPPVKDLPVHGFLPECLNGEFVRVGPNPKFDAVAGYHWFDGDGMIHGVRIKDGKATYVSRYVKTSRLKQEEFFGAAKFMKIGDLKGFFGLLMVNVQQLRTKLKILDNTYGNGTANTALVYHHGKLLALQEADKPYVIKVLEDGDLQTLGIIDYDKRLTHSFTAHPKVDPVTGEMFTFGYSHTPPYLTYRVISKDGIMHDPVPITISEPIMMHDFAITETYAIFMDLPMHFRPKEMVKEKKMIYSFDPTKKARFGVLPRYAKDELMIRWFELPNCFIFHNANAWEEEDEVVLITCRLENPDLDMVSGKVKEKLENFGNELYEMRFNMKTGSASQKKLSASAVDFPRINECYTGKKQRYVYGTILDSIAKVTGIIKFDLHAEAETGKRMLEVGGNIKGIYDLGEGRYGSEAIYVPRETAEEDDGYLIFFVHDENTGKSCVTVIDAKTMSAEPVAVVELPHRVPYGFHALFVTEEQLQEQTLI
A further data set deals with AtNCED3 (Arabidopsis thaliana, UniProt Q9LRR7). Conditions: 100 μM; cited from earlier work.
Sequence of AtNCED3 (Q9LRR7 41-599): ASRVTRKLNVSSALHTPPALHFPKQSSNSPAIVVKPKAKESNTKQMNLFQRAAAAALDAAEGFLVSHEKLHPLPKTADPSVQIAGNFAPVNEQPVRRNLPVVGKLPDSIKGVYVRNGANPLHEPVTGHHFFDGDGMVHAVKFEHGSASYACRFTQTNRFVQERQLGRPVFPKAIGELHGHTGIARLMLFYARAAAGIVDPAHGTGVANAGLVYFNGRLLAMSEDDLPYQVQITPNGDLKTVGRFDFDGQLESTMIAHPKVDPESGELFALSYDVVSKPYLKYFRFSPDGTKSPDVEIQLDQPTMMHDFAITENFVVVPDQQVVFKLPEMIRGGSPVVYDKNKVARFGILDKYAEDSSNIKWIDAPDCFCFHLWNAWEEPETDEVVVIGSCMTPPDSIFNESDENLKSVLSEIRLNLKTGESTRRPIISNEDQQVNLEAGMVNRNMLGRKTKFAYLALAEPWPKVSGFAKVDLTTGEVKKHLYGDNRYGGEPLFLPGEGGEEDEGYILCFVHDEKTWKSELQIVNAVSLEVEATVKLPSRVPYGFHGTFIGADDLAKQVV

Entries after “also recorded” stand apart in the source; their conditions may differ.

Sequence of LeCCD1a (Q6E4P5 1-545): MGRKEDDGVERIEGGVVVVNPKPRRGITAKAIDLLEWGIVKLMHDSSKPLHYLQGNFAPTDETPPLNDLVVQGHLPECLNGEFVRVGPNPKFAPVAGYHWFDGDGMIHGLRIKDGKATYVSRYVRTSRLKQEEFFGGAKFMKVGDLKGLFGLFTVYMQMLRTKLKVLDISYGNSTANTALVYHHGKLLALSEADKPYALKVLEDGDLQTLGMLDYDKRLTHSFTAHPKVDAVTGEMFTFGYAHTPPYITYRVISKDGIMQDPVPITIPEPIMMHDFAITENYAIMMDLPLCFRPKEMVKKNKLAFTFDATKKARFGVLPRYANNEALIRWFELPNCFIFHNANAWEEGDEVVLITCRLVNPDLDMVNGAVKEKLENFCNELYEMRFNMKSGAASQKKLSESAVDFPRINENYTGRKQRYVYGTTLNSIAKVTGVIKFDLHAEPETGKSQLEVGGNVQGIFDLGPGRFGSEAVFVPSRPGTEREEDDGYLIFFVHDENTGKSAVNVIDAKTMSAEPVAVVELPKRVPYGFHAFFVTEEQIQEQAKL
T1 sequence (O24023 17-605): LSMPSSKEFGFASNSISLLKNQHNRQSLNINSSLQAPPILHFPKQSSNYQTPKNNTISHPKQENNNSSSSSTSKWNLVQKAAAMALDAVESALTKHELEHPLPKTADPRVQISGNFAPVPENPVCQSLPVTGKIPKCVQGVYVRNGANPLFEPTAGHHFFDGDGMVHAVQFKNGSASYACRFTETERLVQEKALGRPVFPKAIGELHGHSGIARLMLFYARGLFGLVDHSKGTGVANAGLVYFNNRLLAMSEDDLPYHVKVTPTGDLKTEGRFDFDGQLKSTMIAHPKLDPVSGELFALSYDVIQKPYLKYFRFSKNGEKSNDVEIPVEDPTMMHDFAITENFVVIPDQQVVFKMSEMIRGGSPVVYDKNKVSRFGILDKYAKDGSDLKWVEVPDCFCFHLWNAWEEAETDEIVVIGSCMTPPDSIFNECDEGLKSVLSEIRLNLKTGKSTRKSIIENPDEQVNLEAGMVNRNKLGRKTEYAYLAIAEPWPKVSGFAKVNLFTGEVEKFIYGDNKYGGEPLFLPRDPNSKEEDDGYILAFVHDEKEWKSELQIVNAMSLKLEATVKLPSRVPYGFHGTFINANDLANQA

A word on the Ki: it is the equilibrium dissociation constant of an inhibitor or competing ligand from its target. Consider `COC(=O)CN(C/C=C/c1ccc(OC)c(OC)c1)Cc1ccc(F)cc1` [Abamine, reference compound], for which the “LeNCED1 (11,12) Inhibition @ 100 μM (%)” value at LeNCED1 (100 μM inhibitor, E. coli cell extract with recombinant CCD) came to 20%. Further, the IC50 at LeCCD1a stood at 210 µM. Besides, on recombinant NCED, the inhibition constant Ki is 39 µM. The “abscisic acid production in planta” value in data set [1] is listed as “inhibited abscisic acid production in planta”.

Turning to `O=C(Cc1ccc(O)cc1)N(O)Cc1ccccc1` [Compound D1, N-benzyl-4-hydroxyphenylacetyl hydroxamic acid], the “advancement of the timing of bud outgrowth in wild-type” value in data set [2] was “one”. On LeCCD1a, the “inhibition of LeCCD1 in vitro (in words)” value is “good inhibitors of the 9,10 enzymes in vitro”, the IC50 fell in the range of 0.8 to 0.9 µM and the inhibition at 100 µM is more than 95%. Also, in the data set on whole Arabidopsis plants, the “unintended effects on whole Arabidopsis plants” value is “grew normally” and the “branching phenotype of whole plants (in words)” value was “without an increase in branching”.

As to `COc1ccc(CC(=O)N(O)Cc2ccc(F)cc2)cc1` [Compound D4, N-(4-fluorobenzyl)-4-methoxyphenylacetyl hydroxamic acid], the “plant development following application to seeds” value in the data set with SP12 tomato seeds (2 mM) is “Some delay in development”. The “stimulation of germination of SP12 seeds” value with SP12 tomato seeds is “most active compounds in stimulating germination; also recorded: promoted germination of SP12 seeds”. Besides, in the data set with SP12 tomato seeds (concentrations <1 mM), the “plant development following application to wild-type or SP12 seeds” value is on record as “Normal plant development”. Also, the “inhibition of LeNCED1 in vitro (in words)” value on LeNCED1 is “greatest inhibition of NCED in vitro”. Further, the inhibition at 100 µM on LeCCD1a is more than 95%. The “germination of wild-type tomato seeds” value in data set [3] is “germination of these seeds was also promoted”. Also, in the data set with whole Arabidopsis plants, the “unintended effects on whole Arabidopsis plants” value is “without negative unintended effects on whole plants” and the “branching phenotype of whole plants (in words)” value was “bushy appearance”.

Regarding `O=C(Cc1ccc2c(c1)OCO2)N(O)Cc1ccc(F)cc1` [Compound D7, N-(4-fluorobenzyl)-3,4-methylenoxyphenylacetyl hydroxamic acid], the “stimulation of germination of SP12 seeds” value in the data set with SP12 tomato seeds is “most active compounds in stimulating germination”. Also, the “inhibition of LeNCED1 in vitro (in words)” value at LeNCED1 was “greatest inhibition of NCED in vitro”. For the same compound, the inhibition at 100 µM on LeCCD1a is more than 95%.

Consider abamineSG, for which the “inhibition of AtCCD1” value on AtCCD1 is given as not above 20%. For the same compound, on AtNCED3, the “inhibition of AtNCED3” value is listed as 78%. Further, on recombinant NCED, the Ki was 18.5 µM.
